Where two headings read alike, the source gives them in different places.
Legend:
BE2-C (neuroblastoma) = test: MTT in vitro growth inhibition assay, BE2-C; type: cell-based; conditions: Homo sapiens, BE(2)-C, 72 h; for inhibition at 25 µM: 25 µM of drug, read-out: Percentage of Cell Growth Inhibition BE2-C
SJ-G2 (glioblastoma) = test: MTT in vitro growth inhibition assay, SJ-G2; type: cell-based; conditions: for inhibition at 25 µM: 25 µM of drug, 72 h, read-out: Percentage of Cell Growth Inhibition SJ-G2
MCF-7 (breast carcinoma) = test: MTT in vitro growth inhibition assay, MCF-7; type: cell-based; conditions: Homo sapiens; for inhibition at 25 µM: MCF7, 25 µM of drug, 72 h, read-out: Percentage of Cell Growth Inhibition MCF-7
[1] = test system: MCF10A (normal breast cell line); test: MTT in vitro growth inhibition assay, MCF10A; type: cell-based; conditions: Homo sapiens, MCF-10A; for inhibition at 25 µM: 25 µM of drug, 72 h, read-out: Percentage of Cell Growth Inhibition MCF10A
HT29 (colon carcinoma) = test: MTT in vitro growth inhibition assay, HT29; type: cell-based; conditions: Homo sapiens; for inhibition at 25 µM: HT-29, 25 µM of drug, 72 h, read-out: Percentage of Cell Growth Inhibition HT29
A431 (skin carcinoma) = test: MTT in vitro growth inhibition assay, A431; type: cell-based; conditions: Homo sapiens; for inhibition at 25 µM: A-431, 25 µM of drug, 72 h, read-out: Percentage of Cell Growth Inhibition A431
[2] = test system: Du145 (prostate carcinoma); test: MTT in vitro growth inhibition assay, Du145; type: cell-based; conditions: Homo sapiens; for inhibition at 25 µM: DU-145, 25 µM of drug, 72 h, read-out: Percentage of Cell Growth Inhibition Du145
[3] = test system: panel of 11 cancer cell lines and one normal cell line; test: Cytotoxicity across the whole cell line panel (MTT); type: cell-based; conditions: for activity at the initial screening concentration (to proceed to GI50 determination): 25 µM single dose
Description: With the desired bolinaquinone analogues 12–43 in hand, we examined their cytotoxicity against a panel of 11 tumour cell lines: HT29 (colon carcinoma), U87 and SJ-G2 (glioblastoma), MCF-7 (breast carcinoma), A2780 (ovarian carcinoma), H460 (lung carcinoma), A431 (skin carcinoma), Du145 (prostate carcinoma), BE2-C (neuroblastoma), MIA (pancreatic carcinoma), SMA (spontaneous murine astrocytoma) and a normal breast cell line (MCF10A). The inclusion of the MCF-10A cell line allowed a determination of a crude measure of relative toxicity while noting that the ultimate arbiter of toxicity requires in vivo evaluation. All analogues were initially screened at a 25 µM drug concentration.
Stock solutions were prepared as follows and stored at −20°C: drugs were stored as 40 mM solutions in DMSO. All cell lines were cultured in a humidified atmosphere 5% CO2 at 37°C. The cancer cell lines were maintained in Dulbecco's modified Eagle's medium (DMEM) (Trace Biosciences, Australia) supplemented with 10% fetal bovine serum, 10 mM sodium bicarbonate, penicillin (100 IU ml^−1), streptomycin (100 µg ml^−1) and glutamine (4 mM). The non-cancer MCF10A cell line was cultured in DMEM:F12 (1 : 1) cell culture media, 5% heat-inactivated horse serum, supplemented with penicillin (50 IU ml^−1), streptomycin (50 µg ml^−1), 20 mM Hepes, L-glutamine (2 mM), epidermal growth factor (20 ng ml^−1), hydrocortisone (500 ng ml^−1), cholera toxin (100 ng ml^−1) and insulin (10 ug ml^−1).
Cells in logarithmic growth were transferred to 96-well plates. Cytotoxicity was determined by plating cells in duplicate in 100 µl medium at a density of 2500–4000 cells per well. On day 0 (24 h after plating), when the cells were in logarithmic growth, 100 μl of medium with or without the test agent was added to each well. After 72 h, drug exposure growth inhibitory effects were evaluated using the MTT (3-[4,5-dimethylthiazol-2-yl]-2,5-diphenyl-tetrazolium bromide) assay and the absorbance read at 540 nm. Percentage growth inhibition was determined at a fixed drug concentration of 25 µM. A value of 100% is indicative of complete cell growth inhibition. Those analogues showing appreciable percentage growth inhibition underwent further dose–response analysis allowing for the calculation of a GI50 value. This value is the drug concentration at which cell growth is 50% inhibited based on the difference between the optical density values on day 0 and those at the end of drug exposure.

[4] = test system: A2780 (ovarian carcinoma); test: MTT in vitro growth inhibition assay, A2780; type: cell-based; conditions: Homo sapiens; for inhibition at 25 µM: 25 µM of drug, 72 h, read-out: Percentage of Cell Growth Inhibition A2780
[5] = test system: MIA (pancreatic carcinoma); test: MTT in vitro growth inhibition assay, MIA; type: cell-based; conditions: for inhibition at 25 µM: 25 µM of drug, 72 h, read-out: Percentage of Cell Growth Inhibition MIA
H460 (lung carcinoma) = test: MTT in vitro growth inhibition assay, H460; type: cell-based; conditions: Homo sapiens; for inhibition at 25 µM: NCI-H460, 25 µM of drug, 72 h, read-out: Percentage of Cell Growth Inhibition H460
U87 (glioblastoma) = test: MTT in vitro growth inhibition assay, U87; type: cell-based; conditions: for inhibition at 25 µM: 25 µM of drug, 72 h, read-out: Percentage of Cell Growth Inhibition U87
[6] = test system: SMA (spontaneous murine astrocytoma); test: MTT in vitro growth inhibition assay, SMA; type: cell-based; conditions: Mus musculus; for inhibition at 25 µM: 25 µM of drug, 72 h, read-out: Percentage of Cell Growth Inhibition SMA

SMILES | inhibition at 25 µM (BE2-C (neuroblastoma)) | inhibition at 25 µM (SJ-G2 (glioblastoma)) | inhibition at 25 µM (MCF-7 (breast carcinoma)) | inhibition at 25 µM [1] | inhibition at 25 µM (HT29 (colon carcinoma)) | inhibition at 25 µM (A431 (skin carcinoma)) | inhibition at 25 µM [2] | activity at the initial screening concentration (to proceed to GI50 determination) [3] | melting point | inhibition at 25 µM [4] | inhibition at 25 µM [5] | inhibition at 25 µM (H460 (lung carcinoma)) | inhibition at 25 µM (U87 (glioblastoma)) | inhibition at 25 µM [6] | also measured
COC1=CC(=O)C(OC)=C(c2cccc(C)c2)C1=O [compound 14, 2,5-Dimethoxy-3-m-tolylcyclohexa-2,5-diene-1,4-dione] | 80 ± 10% | 38 ± 18% | 22 ± 11% | 16 ± 5% | 12 ± 3% | 26 ± 5% | 28 ± 8% | not sufficiently active | 74 to 77 °C | 59 ± 13% | 24 ± 7% | 19 ± 2% | 21 ± 7% | 36 ± 7% | 
CCCCc1ccc(C2=C(OC)C(=O)C=C(OC)C2=O)cc1 [compound 15, 3-(4-Butylphenyl)-2,5-dimethoxycyclohexa-2,5-diene-1,4-dione] | 41 ± 18% | 12 ± 6% | 19 ± 7% | < 10% | < 10% | < 10% | < 10% | not sufficiently active |  | 39 ± 14% | < 10% | < 10% | 10 ± 7% | 25 ± 10% | 
COC1=CC(=O)C(OC)=C(c2ccccc2OC)C1=O [compound 18, 3-(2-Methoxyphenyl)-2,5-dimethoxycyclohexa-2,5-diene-1,4-diene] | 75 ± 9% | 17 ± 8% | 22 ± 9% | 15 ± 5% | 13 ± 6% | 28 ± 4% | 14 ± 8% | not sufficiently active | 162 to 164 °C | 33 ± 6% | 19 ± 5% | 22 ± 2% | 15 ± 2% | 34 ± 8% | 
COC1=CC(=O)C(OC)=C(c2cccc(OC)c2)C1=O [compound 19, 3-(3-Methoxyphenyl)-2,5-dimethoxycyclohexa-2,5-diene-1,4-diene] | 70 ± 5% | 26 ± 12% | 36 ± 14% | 15 ± 3% | 13 ± 4% | 22 ± 2% | 24 ± 6% | not sufficiently active | 72 to 75 °C | 60 ± 11% | 20 ± 6% | 19 ± 1% | 20 ± 5% | 40 ± 8% | 
COC1=CC(=O)C(OC)=C(c2cc(OC)ccc2OC)C1=O [compound 21, 2,5-Dimethoxy-3-(2,5-dimethoxyphenyl)cyclohexa-2,5-diene-1,4-dione] | 49 ± 11% | 16 ± 7% | 13 ± 6% | < 10% | 16 ± 4% | 12 ± 3% | 17 ± 5% | not sufficiently active |  | 26 ± 9% | 15 ± 2% | 17 ± 7% | 14 ± 2% | 26 ± 4% | 
COC1=CC(=O)C(OC)=C(c2cccc(OC)c2OC)C1=O [compound 22, 2,5-Dimethoxy-3-(2,3-dimethoxyphenyl)cyclohexa-2,5-diene-1,4-dione] | 75 ± 8% | 23 ± 10% | 16 ± 10% | 18 ± 2% | 15 ± 1% | 35 ± 5% | 23 ± 9% | not sufficiently active | 122 to 125 °C | 44 ± 8% | 24 ± 4% | 20 ± 2% | 14 ± 8% | 31 ± 7% | 
COC1=CC(=O)C(OC)=C(c2ccc(OC)c(OC)c2)C1=O [compound 23, 2,5-Dimethoxy-3-(3,4-dimethoxyphenyl)cyclohexa-2,5-diene-1,4-dione] | > 100% | > 100% | > 100% | 62 ± 4% | > 100% | 95 ± 4% | 81 ± 4% |  | 135 to 137 °C | > 100% | > 100% | 77 ± 4% | > 100% | > 100% | GI50 (BE2-C (neuroblastoma); 72 h drug exposure): 3 ± 0.35 µM; GI50 (SJ-G2 (glioblastoma); 72 h drug exposure): 12 ± 0.67 µM; GI50 (MCF-7 (breast carcinoma); MCF7, 72 h drug exposure): 6.1 ± 1.1 µM; GI50 ([1]; normal breast cell line, 72 h drug exposure): 19 ± 1.3 µM; GI50 (HT29 (colon carcinoma); HT-29, 72 h drug exposure): 11 ± 0.17 µM; GI50 (A431 (skin carcinoma); A-431, 72 h, 72 h drug exposure): 13 ± 0.58 µM; GI50 ([2]; DU-145, 72 h, 72 h drug exposure): 13 ± 0.58 µM; cytotoxicity spectrum across the panel [3]: broad-spectrum active; GI50 ([3]; average over the cell line panel, read-out: average GI50): 10.2 µM; GI50 ([3]; span over the cell line panel, read-out: GI50 values across the cell lines examined (range)): 3 to 15 µM; GI50 ([4]; 72 h drug exposure): 3.8 ± 0.75 µM; GI50 ([5]; 72 h drug exposure): 4.8 ± 0.91 µM; GI50 (H460 (lung carcinoma); NCI-H460, 72 h drug exposure): 15 ± 2 µM; GI50 (U87 (glioblastoma); 72 h drug exposure): 9.5 ± 1.2 µM; GI50 ([6]; 72 h drug exposure): 3.9 ± 0.54 µM

From publication PMC5936891, “A focused library synthesis and cytotoxicity of quinones derived from the natural product bolinaquinone” (Royal Society Open Science, 2018)
